Values joined by “and” are separate entries in the source; they are usually repeats but may differ in a detail not shown here. Identical values can stand only once.
System: advanced renal cell carcinoma (RCC)
Experiment: METEOR (Study 1) randomized phase 3 trial, cabozantinib vs everolimus: PFS, OS, ORR
Type: in vivo, human
Settings: for ORR (95% CI), IRC / ORR (95% CI), Investigator assessed / Progressive disease, IRC / Progressive disease, Investigator assessed / Stable disease, IRC / Stable disease, Investigator assessed / Confirmed ORR (95% CI), IRC / Confirmed ORR (95% CI), Investigator assessed / Confirmed responses (95% CI), IRC / Confirmed responses (95% CI), Investigator assessed: RECIST 1.1; for PFS event: all randomized
[1] = Patients With High Tumor Burden
[2] = Pts with Bone and Visceral Metastases
[3] = prior therapy subgroup Anti-PD-1/PD-L1
[4] = prior therapy subgroup Pazopanib Only
[5] = prior therapy subgroup Sunitinib Only

Question: With CO[C@H]1C[C@@H]2CC[C@@H](C)[C@@](O)(O2)C(=O)C(=O)N2CCCC[C@H]2C(=O)O[C@H]([C@H](C)C[C@@H]2CC[C@@H](OCCO)[C@H](OC)C2)CC(=O)[C@H](C)/C=C(\C)[C@@H](O)[C@@H](OC)C(=O)[C@H](C)C[C@H](C)/C=C/C=C/C=C/1C [everolimus] as the molecule, how does the “Kaplan-Meier estimate of % of patients alive” value (6 Months landmark) read?
Answer: Its value is 81% (76%, 85%).

Question: And the “Kaplan-Meier estimate of % of patients alive” value (12 Months landmark)?
Answer: Its value is 63% and 63% (58%, 78%).

Question: What about the “Kaplan-Meier estimate of % of patients alive” value (18 Months landmark) of the same molecule?
Answer: Its value is 47%.

Question: What about the “Kaplan-Meier estimate of % of patients alive” value (18 Months landmark, listed as Everolimus) of the same molecule?
Answer: The value was 47% (41%, 52%).

Question: What about the “Kaplan-Meier estimate of % of patients alive” value (24 Months landmark) of the same molecule?
Answer: The value was 31% (23%, 39%).

Question: And the “ORR (95% CI), IRC” value (Asia Pacific)?
Answer: Its value is 2 (0-11) %.

Question: And the “ORR (95% CI), Investigator assessed” value (Asia Pacific)?
Answer: The value was 4 (1-15) %.

Question: And the “Progressive disease, IRC” value (Asia Pacific)?
Answer: Its value is 28%.

Question: And the “Progressive disease, Investigator assessed” value (Asia Pacific)?
Answer: Its value is 26%.

Question: And the “Stable disease, IRC” value (Asia Pacific)?
Answer: The value was 60%.

Question: What about the “Stable disease, Investigator assessed” value (Asia Pacific) of the same molecule?
Answer: The value was 60%.

Question: And the “ORR (95% CI), IRC” value (Europe)?
Answer: Its value is 4 (1-8) %.

Question: And the “ORR (95% CI), Investigator assessed” value (Europe)?
Answer: Its value is 4 (1-8) %.

Question: What about the “Progressive disease, IRC” value (Europe) of the same molecule?
Answer: The value was 24%.

Question: And the “Progressive disease, Investigator assessed” value (Europe)?
Answer: The value was 25%.

Question: And the “Stable disease, IRC” value (Europe)?
Answer: Its value is 65%.

Question: And the “Stable disease, Investigator assessed” value (Europe)?
Answer: Its value is 66%.

Question: And the “Median OS” value (ITT, all 658 randomized, cutoff Dec. 31, 2015)?
Answer: Its value is 16.5 months.

Question: And the “Median OS” value (ITT, all 658 randomized, cutoff Dec. 31, 2015, listed as Everolimus)?
Answer: Its value is 16.5 (14.7, 18.8) months.

Question: And the “Objective response rate (confirmed, partial responses only) per IRC” value (ITT, all 658 randomized, cutoff May 22, 2015)?
Answer: Its value is 3%.

Question: And the “Objective response rate (confirmed, partial responses only) per IRC” value (ITT, all 658 randomized, cutoff May 22, 2015, listed as eve)?
Answer: The value was 3%.

Question: What about the “ORR (95% CI), IRC” value (North America) of the same molecule?
Answer: Its value is 2 (1-7) %.

Question: And the “ORR (95% CI), Investigator assessed” value (North America)?
Answer: Its value is 3 (1-8) %.

Question: And the “Progressive disease, IRC” value (North America)?
Answer: Its value is 30%.

Question: What about the “Progressive disease, Investigator assessed” value (North America) of the same molecule?
Answer: Its value is 29%.

Question: And the “Stable disease, IRC” value (North America)?
Answer: Its value is 59%.

Question: And the “Stable disease, Investigator assessed” value (North America)?
Answer: Its value is 62%.

Question: What about the “Confirmed ORR (95% CI), IRC” value [1] of the same molecule?
Answer: The value was 0%.

Question: What about the “Confirmed ORR (95% CI), Investigator assessed” value [1] of the same molecule?
Answer: Its value is 1 (0-4) %.

Question: What about the “Progressive disease, IRC” value [1] of the same molecule?
Answer: The value was 26%.

Question: What about the “Progressive disease, Investigator assessed” value [1] of the same molecule?
Answer: Its value is 27%.

Question: And the “Stable disease, IRC” value [1]?
Answer: The value was 64%.

Question: What about the “Stable disease, Investigator assessed” value [1] of the same molecule?
Answer: Its value is 62%.

Question: And the “Confirmed ORR (95% CI), IRC” value (Patients With Low Tumor Burden)?
Answer: The value was 7 (3-12) %.

Question: And the “Confirmed ORR (95% CI), Investigator assessed” value (Patients With Low Tumor Burden)?
Answer: The value was 7 (4-13) %.

Question: What about the “Progressive disease, IRC” value (Patients With Low Tumor Burden) of the same molecule?
Answer: Its value is 28%.

Question: What about the “Progressive disease, Investigator assessed” value (Patients With Low Tumor Burden) of the same molecule?
Answer: Its value is 27%.

Question: What about the “Stable disease, IRC” value (Patients With Low Tumor Burden) of the same molecule?
Answer: Its value is 60%.

Question: What about the “Stable disease, Investigator assessed” value (Patients With Low Tumor Burden) of the same molecule?
Answer: The value was 64%.

Question: And the “Confirmed responses (95% CI), IRC” value (Pts with Bone Metastases)?
Answer: The value was 0%.

Question: And the “Confirmed responses (95% CI), Investigator assessed” value (Pts with Bone Metastases)?
Answer: The value was 0%.

Question: And the “Progressive disease, IRC” value (Pts with Bone Metastases)?
Answer: Its value is 37%.

Question: And the “Progressive disease, Investigator assessed” value (Pts with Bone Metastases)?
Answer: Its value is 26%.

Question: What about the “Stable disease, IRC” value (Pts with Bone Metastases) of the same molecule?
Answer: Its value is 54%.

Question: And the “Stable disease, Investigator assessed” value (Pts with Bone Metastases)?
Answer: The value was 63%.

Question: What about the “Confirmed responses (95% CI), IRC” value [2] of the same molecule?
Answer: Its value is 0%.

Question: And the “Confirmed responses (95% CI), Investigator assessed” value [2]?
Answer: The value was 0%.

Question: What about the “Progressive disease, IRC” value [2] of the same molecule?
Answer: The value was 44%.

Question: And the “Progressive disease, Investigator assessed” value [2]?
Answer: The value was 29%.

Question: And the “Stable disease, IRC” value [2]?
Answer: Its value is 44%.

Question: And the “Stable disease, Investigator assessed” value [2]?
Answer: Its value is 59%.

Question: What about the “Confirmed responses (95% CI), IRC” value (Pts without Bone Metastases) of the same molecule?
Answer: The value was 4 (2-7) %.

Question: And the “Confirmed responses (95% CI), Investigator assessed” value (Pts without Bone Metastases)?
Answer: Its value is 5 (3-9) %.

Question: What about the “Progressive disease, IRC” value (Pts without Bone Metastases) of the same molecule?
Answer: The value was 24%.

Question: What about the “Progressive disease, Investigator assessed” value (Pts without Bone Metastases) of the same molecule?
Answer: The value was 26%.

Question: What about the “Stable disease, IRC” value (Pts without Bone Metastases) of the same molecule?
Answer: Its value is 64%.

Question: What about the “Stable disease, Investigator assessed” value (Pts without Bone Metastases) of the same molecule?
Answer: Its value is 63%.

Question: What about the “Objective response rate per investigator” value (all 658 randomized, cutoff May 22, 2015) of the same molecule?
Answer: The value was 4%.

Question: And the “Median duration of PFS” value (all 658 randomized, per IRC, cutoff May 22, 2015)?
Answer: Its value is 3.9 months.

Question: And the “Median duration of PFS” value (all 658 randomized, per IRC, cutoff May 22, 2015, listed as Everolimus)?
Answer: The value was 3.9 (3.7-5.1) months and 3.9 months.

Question: What about the “Median duration of PFS” value (all 658 randomized, per investigator, cutoff May 22, 2015) of the same molecule?
Answer: The value was 5.1 (3.9-5.5) months.

Question: What about the PFS event (per IRC, cutoff May 22, 2015) of the same molecule?
Answer: Its PFS event is 214 (66) ^ n (%).

Question: And the PFS event (per investigator, cutoff May 22, 2015)?
Answer: The PFS event was 233 (71) ^ n (%).

Question: What about the “Median PFS” value (first 375 randomized, per independent radiology review committee (IRC)) of the same molecule?
Answer: Its value is 3.8 months.

Question: What about the “Median PFS” value (first 375 randomized, per independent radiology review committee (IRC), listed as Everolimus) of the same molecule?
Answer: The value was 3.8 (3.7, 5.4) months.

Question: What about the “Median PFS” value (first 375 randomized, per independent radiology review committee (IRC), listed as eve) of the same molecule?
Answer: Its value is 3.8 months.

Question: What about the “Median OS” value (high MET tumor expression) of the same molecule?
Answer: Its value is 15.2 months.

Question: And the “Median OS” value (high tumor burden)?
Answer: The value was 12.2 mo.

Question: And the “Patients with reduction in measurable tumor lesion size” value (in vivo)?
Answer: Its value is 48%.

Question: And the “Median OS” value (low MET tumor expression)?
Answer: Its value is 18.4 months.

Question: What about the “Median OS” value (low tumor burden) of the same molecule?
Answer: The value was 19.3 mo.

Question: What about the “Median OS” value (patients enrolled in Canada) of the same molecule?
Answer: The value was 12.8 mo.

Question: And the “Median PFS” value (patients enrolled in Canada)?
Answer: The value was 3.7 mo.

Question: What about the ORR (patients enrolled in Canada) of the same molecule?
Answer: The ORR was 0%.

Question: And the “Median PFS” value (patients with bone and visceral metastases)?
Answer: Its value is 1.9 mo.

Question: What about the “Median PFS” value (patients with bone metastases) of the same molecule?
Answer: Its value is 2.7 mo.

Question: What about the “Best overall response: confirmed complete response” value (per IRC) of the same molecule?
Answer: Its value is 0 n.

Question: What about the “Best overall response: confirmed partial response” value (per IRC) of the same molecule?
Answer: The value was 11 n.

Question: What about the “Best overall response: confirmed complete response” value (per investigator) of the same molecule?
Answer: The value was 0 n.

Question: And the “Confirmed ORR (95% CI), tumor response by IRC” value (“Confirmed ORR (95% CI) … by IRC” below) [3]?
Answer: The value was 0%.

Question: And the “Confirmed ORR (95% CI), tumor response by investigator” value [3]?
Answer: Its value is 0%.

Question: What about the “Progressive disease, tumor response by IRC” value (shortened to “Progressive disease … by IRC”) [3] of the same molecule?
Answer: The value was 29%.

Question: What about the “Progressive disease, tumor response by investigator” value [3] of the same molecule?
Answer: Its value is 14%.

Question: What about the “Stable disease, tumor response by IRC” value [3] of the same molecule?
Answer: The value was 64%.

Question: What about the “Stable disease, tumor response by investigator” value (from here on “Stable disease … by investigator”) [3] of the same molecule?
Answer: The value was 86%.

Question: What about the “Confirmed ORR (95% CI) … by IRC” value [4] of the same molecule?
Answer: The value was 4 (1-10) %.

Question: What about the “Confirmed ORR (95% CI), tumor response by investigator” value [4] of the same molecule?
Answer: Its value is 4 (1-10) %.

Question: What about the “Progressive disease … by IRC” value [4] of the same molecule?
Answer: The value was 22%.

Question: What about the “Progressive disease, tumor response by investigator” value [4] of the same molecule?
Answer: The value was 27%.

Question: What about the “Stable disease, tumor response by IRC” value [4] of the same molecule?
Answer: Its value is 66%.

Question: What about the “Stable disease … by investigator” value [4] of the same molecule?
Answer: Its value is 64%.

Question: And the “Confirmed ORR (95% CI) … by IRC” value [5]?
Answer: The value was 3 (1-8) %.

Question: And the “Confirmed ORR (95% CI), tumor response by investigator” value [5]?
Answer: Its value is 4 (1-9) %.

Question: And the “Progressive disease … by IRC” value [5]?
Answer: The value was 35%.

Question: What about the “Progressive disease, tumor response by investigator” value [5] of the same molecule?
Answer: Its value is 29%.

Question: What about the “Stable disease, tumor response by IRC” value [5] of the same molecule?
Answer: Its value is 57%.

Question: And the “Stable disease … by investigator” value [5]?
Answer: Its value is 63%.

Question: What about the Deaths (second interim analysis of OS, of randomized patients) of the same molecule?
Answer: Its Deaths is 55%.
